Source: ChEMBL document CHEMBL1240530, “Inhalation by design: novel ultra-long-acting β(2)-adrenoreceptor agonists for inhaled once-daily treatment of asthma and chronic obstructive pulmonary disease that utilize a sulfonamide agonist headgroup” (J Med Chem, 2010)
Values belong to the compound of their own block, whether it stands above or below them.

Assays:
[1] = Bronchodilatory activity in Dunkin-Hartley guinea pig trachea assessed as time taken for electrical filed stimulation-induced constrictive response to recover by 50%; assay type: functional, Cavia porcellus
Homo sapiens = species on record: Homo sapiens; experiment: Selectivity ratio of EC50 for human recombinant beta-1 adrenergic receptor to EC50 for human recombinant beta2 adrenergic receptor
[2] = biological target: Beta-2 adrenergic receptor (Homo sapiens, UniProt P07550); experiment: Agonist activity at human recombinant beta2 adrenergic receptor expressed in CHO cells assessed as elevation in cAMP level after 1 hr by flashplate method; assay type: functional, cell-based
Sequence of Beta-2 adrenergic receptor (P07550 whole entry): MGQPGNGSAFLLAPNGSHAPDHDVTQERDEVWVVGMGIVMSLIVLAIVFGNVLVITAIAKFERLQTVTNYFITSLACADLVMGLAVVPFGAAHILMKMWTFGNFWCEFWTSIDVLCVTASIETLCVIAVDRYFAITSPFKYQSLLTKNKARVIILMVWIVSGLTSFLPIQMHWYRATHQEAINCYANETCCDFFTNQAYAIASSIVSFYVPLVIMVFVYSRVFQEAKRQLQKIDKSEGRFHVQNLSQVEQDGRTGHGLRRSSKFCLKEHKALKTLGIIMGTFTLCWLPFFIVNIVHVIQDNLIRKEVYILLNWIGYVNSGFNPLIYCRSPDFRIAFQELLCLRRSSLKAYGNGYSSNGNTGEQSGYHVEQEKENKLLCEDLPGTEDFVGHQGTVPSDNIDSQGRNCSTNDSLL

[3] = Distribution coefficient, log D of the compound; assay type: physicochemical; details: octanol/water
Canis familiaris [4] = experiment: Bronchodilatory activity in itr dosed Beagle dog assessed as duration of blockade of acetylcholine-induced bronchoconstriction at ED50 administered as single dose prior to acetylcholine challenge
Canis familiaris [5] = experiment: Bronchodilatory activity in itr dosed Beagle dog assessed as duration of blockade of acetylcholine-induced bronchoconstriction at 10 times ED50 administered as single dose prior to acetylcholine challenge
Liver microsomes [6] = experiment: Intrinsic clearance in human liver microsome; assay type: ADME
[7] = Apparent permeability from apical to basolateral side of human Caco-2 cells; assay type: ADME, cell-based
[8] = Apparent permeability from basolateral to apical side of human Caco-2 cells; assay type: ADME, cell-based
[9] = Volume of distribution in iv dosed rat; assay type: ADME, organism-based; details: in vivo
[10] = Total clearance in iv dosed rat; assay type: ADME, organism-based; details: in vivo
[11] = Half life in iv dosed rat; assay type: ADME, organism-based; details: in vivo
[12] = Plasma protein binding in iv dosed rat; assay type: ADME, organism-based; details: read-out: PPB (converted)
[13] = Oral bioavailability in rat; assay type: ADME, organism-based; details: in vivo
[14] = Metabolic stability in rat bile assessed as compound remaining; assay type: ADME, tissue-based
Liver [15] = experiment: Intrinsic clearance in rat liver; assay type: ADME, Microsome; details: microsomes
Liver [16] = experiment: Unbound intrinsic clearance in rat liver; assay type: ADME, Microsome; details: microsomes
Liver microsomes [17] = experiment: Metabolic stability in human liver microsome; assay type: ADME
[18] = Tmax in rat at 100 ug, it; assay type: ADME, organism-based; details: in vivo, inhaled or intranasal
[19] = Cmax in rat at 100 ug, it; assay type: ADME, organism-based; set-up: dose 100 ug; details: in vivo, inhaled or intranasal
[20] = biological target: Voltage-gated inwardly rectifying potassium channel KCNH2 (Homo sapiens, UniProt Q12809); experiment: Inhibition of human ERG by patch clamp technique
Sequence of Voltage-gated inwardly rectifying potassium channel KCNH2 (Q12809 whole entry): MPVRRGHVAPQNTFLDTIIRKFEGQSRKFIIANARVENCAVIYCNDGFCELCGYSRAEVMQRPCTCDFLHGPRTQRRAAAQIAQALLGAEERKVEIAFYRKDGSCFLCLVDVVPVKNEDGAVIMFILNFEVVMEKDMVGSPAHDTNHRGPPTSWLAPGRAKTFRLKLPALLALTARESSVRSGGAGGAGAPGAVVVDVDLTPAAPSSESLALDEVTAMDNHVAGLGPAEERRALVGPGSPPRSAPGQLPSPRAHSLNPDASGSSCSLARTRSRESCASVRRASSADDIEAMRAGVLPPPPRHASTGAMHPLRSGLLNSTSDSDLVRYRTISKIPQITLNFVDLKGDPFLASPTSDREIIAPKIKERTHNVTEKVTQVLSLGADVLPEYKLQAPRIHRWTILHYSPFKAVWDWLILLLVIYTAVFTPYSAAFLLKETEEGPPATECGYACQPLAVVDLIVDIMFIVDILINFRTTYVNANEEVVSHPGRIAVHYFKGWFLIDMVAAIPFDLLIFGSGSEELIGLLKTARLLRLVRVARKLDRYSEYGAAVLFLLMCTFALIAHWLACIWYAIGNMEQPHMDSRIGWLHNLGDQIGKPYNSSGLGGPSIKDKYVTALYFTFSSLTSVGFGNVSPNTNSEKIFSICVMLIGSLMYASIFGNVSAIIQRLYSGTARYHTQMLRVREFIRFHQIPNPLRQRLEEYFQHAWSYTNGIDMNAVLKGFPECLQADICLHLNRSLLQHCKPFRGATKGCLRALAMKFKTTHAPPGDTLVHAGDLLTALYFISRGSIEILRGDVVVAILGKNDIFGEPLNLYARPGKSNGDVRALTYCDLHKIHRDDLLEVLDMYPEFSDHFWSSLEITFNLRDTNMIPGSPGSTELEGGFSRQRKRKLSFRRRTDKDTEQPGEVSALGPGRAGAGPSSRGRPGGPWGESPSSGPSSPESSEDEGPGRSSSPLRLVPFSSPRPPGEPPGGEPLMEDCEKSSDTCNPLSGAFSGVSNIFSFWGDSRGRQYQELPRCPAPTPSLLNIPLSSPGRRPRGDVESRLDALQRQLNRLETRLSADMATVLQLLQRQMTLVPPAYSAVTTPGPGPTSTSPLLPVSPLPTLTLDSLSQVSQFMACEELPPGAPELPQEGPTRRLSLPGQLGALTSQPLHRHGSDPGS

Liver microsomes [21] = experiment: Intrinsic clearance in human liver microsome in presence of CYP3A4 inhibitor ketoconazole; assay type: ADME
Canis familiaris [22] = experiment: Cardiotoxicity in itr dosed Beagle dog assessed as induction of trachycardia after 7.5 hrs; assay type: toxicity, organism-based, Canis lupus familiaris; details: in vivo, inhaled_or_intranasal
Oryctolagus cuniculus = species on record: Oryctolagus cuniculus; experiment: Toxicity in rabbit Adelta-fibre firing model assessed as induction of postinhalation cough at 50 to 1000 ug, it; assay type: organism-based; details: in vivo, inhaled_or_intranasal
Canis familiaris [23] = species on record: Canis familiaris
Description: Bronchodilatory activity in itr dosed Beagle dog assessed as inhibition of acetylcholine-induced bronchoconstriction administered 5 doses of compound at cumulative 1 hr intervals

in vivo = details: beagle, dog, inhaled or intranasal
Description: Therapeutic index, ratio of dose inducing cardiovascular side effects to ED50 for inhibition of acetylcholine-induced bronchoconstriction in itr dosed Beagle dog

[24] = Dissociation constant, pKa of the compound; assay type: physicochemical
Canis familiaris [25] = experiment: Cardiotoxicity in itr dosed Beagle dog assessed as increase in heart rate after 7.5 hrs; assay type: toxicity, organism-based, Canis lupus familiaris; details: in vivo, inhaled_or_intranasal

Ratio EC50 (Homo sapiens): 1300
SMILES: CC(C)(Cc1cccc(CC(=O)NCc2ccc(-c3ccc(O)cc3)cc2)c1)NC[C@H](O)c1ccc(O)c(NS(C)(=O)=O)c1
Time [1]: 6.57 h

EC50 [2]: 0.023 nM
Ratio EC50 (Homo sapiens): 7500
SMILES: CC(C)(Cc1cccc(CC(=O)NCc2ccccc2)c1)NC[C@H](O)c1ccc(O)c(NS(C)(=O)=O)c1

EC50 [2]: 0.13 nM
Ratio EC50 (Homo sapiens): 560
logD [3]: 2
SMILES: CC(C)(Cc1cccc(CC(=O)NCc2cc(Cl)cc(Cl)c2O)c1)NC[C@H](O)c1ccc(O)c(NS(C)(=O)=O)c1
Time [1]: 8.02 h

EC50 [2]: 0.02 nM
Ratio EC50 (Homo sapiens): 7300
logD [3]: 1.2
SMILES: CC(C)(Cc1cccc(CC(=O)NCc2ccc(O)cc2Cl)c1)NC[C@H](O)c1ccc(O)c(NS(C)(=O)=O)c1
Time [1]: 6.8 h

EC50 [2]: 0.032 nM
Ratio EC50 (Homo sapiens): 3100
SMILES: C[C@H](Cc1cccc(CC(=O)NCC2CCCCC2)c1)NC[C@H](O)c1ccc(O)c(NS(C)(=O)=O)c1
Time [1]: 5.79 h

EC50 [2]: 0.04 nM
Ratio EC50 (Homo sapiens): 1800
SMILES: C[C@H](Cc1cccc(CC(=O)NCCc2ccccc2)c1)NC[C@H](O)c1ccc(O)c(NS(C)(=O)=O)c1

Ratio EC50 (Homo sapiens): 220
logD [3]: 1.9
CL (Liver microsomes [6]): 0.054 mL/min/kg
Papp A→B [7]: < 1 ×10⁻⁶ cm/s
Papp B→A [8]: 13 ×10⁻⁶ cm/s
Vd [9]: 31 L/kg
clearance [10]: 103 mL/min/kg
half-life [11]: 3.5 h
fraction unbound [12]: 0.05
bioavailability [13]: < 5%
Stability [14]: 6%
CL (Liver [15]): 0.033 mL/min/kg
CL free (Liver [16]): > 10000 mL/min/kg
Stability (Liver microsomes [17]): 80%
Tmax [18]: 0.5 h
Cmax [19]: 1.3 nM
CL (Liver microsomes [21]): < 0.01 mL/min/kg
SMILES: CC(C)(Cc1cccc(CC(=O)NCc2cccc(-c3ccc(O)cc3)c2)c1)NC[C@H](O)c1ccc(O)c(NS(C)(=O)=O)c1 [PF-00610355]
Time [1]: 6.23 h
Time (Canis familiaris [4]): >8 h
Time (Canis familiaris [5]): >8 h
IC50 [20]: > 10000 nM
Activity (Canis familiaris [22]): Non-toxic
Activity (Oryctolagus cuniculus): Non-toxic
ED50 (Canis familiaris [23]): 0.1 µg
selectivity ratio (in vivo): ≥ 10

EC50 [2]: 0.042 nM
Ratio EC50 (Homo sapiens): 3400
logD [3]: 1.7
SMILES: C[C@H](Cc1cccc(CC(=O)NCCCc2ccccc2)c1)NC[C@H](O)c1ccc(O)c(NS(C)(=O)=O)c1
Time [1]: 5.85 h

EC50 [2]: 0.027 nM
Ratio EC50 (Homo sapiens): 16000
logD [3]: 1
SMILES: C[C@H](Cc1cccc(CC(=O)NCc2ccccc2)c1)NC[C@H](O)c1ccc(O)c(NS(C)(=O)=O)c1
Time [1]: 3.24 h

EC50 [2]: 0.056 nM
Ratio EC50 (Homo sapiens): 3700
logD [3]: 2
SMILES: Cc1ccc(CNC(=O)Cc2cccc(C[C@@H](C)NC[C@H](O)c3ccc(O)c(NS(C)(=O)=O)c3)c2)cc1C
Time [1]: 6.74 h

EC50 [2]: 0.37 nM
Ratio EC50 (Homo sapiens): 210
logD [3]: 1.6
SMILES: CCN(Cc1ccc(O)cc1Cl)C(=O)Cc1cccc(CC(C)(C)NC[C@H](O)c2ccc(O)c(NS(C)(=O)=O)c2)c1
Time [1]: 8.49 h

EC50 [2]: 0.091 nM
Ratio EC50 (Homo sapiens): 1600
logD [3]: 0.8
pKa [24]: 6.69
SMILES: CC(C)(Cc1cccc(CC(=O)NCc2cc(Cl)c(O)c(Cl)c2)c1)NC[C@H](O)c1ccc(O)c(NS(C)(=O)=O)c1
Time [1]: 3.66 h

EC50 [2]: 0.04 nM
Ratio EC50 (Homo sapiens): 5600
logD [3]: 1.2
SMILES: COc1ccccc1CNC(=O)Cc1cccc(C[C@@H](C)NC[C@H](O)c2ccc(O)c(NS(C)(=O)=O)c2)c1
Time [1]: 4.22 h

SMILES: COc1cccc(OC)c1CNC(=O)c1cc2cc(C[C@@H](C)NC[C@H](O)c3ccc(O)c(CO)c3)ccc2[nH]1
Time (Canis familiaris [4]): >8 h
Time (Canis familiaris [5]): >8 h
ED50 (Canis familiaris [23]): 1 µg
selectivity ratio (in vivo): 10

EC50 [2]: 0.21 nM
Ratio EC50 (Homo sapiens): 730
logD [3]: 1.3
SMILES: CC(C)(Cc1cccc(CC(=O)NCc2ccc3cc(O)ccc3c2)c1)NC[C@H](O)c1ccc(O)c(NS(C)(=O)=O)c1
Time [1]: 6.17 h

EC50 [2]: 0.045 nM
Ratio EC50 (Homo sapiens): 3700
logD [3]: 1.1
pKa [24]: 9.93
SMILES: Cc1cc(O)cc(C)c1CNC(=O)Cc1cccc(CC(C)(C)NC[C@H](O)c2ccc(O)c(NS(C)(=O)=O)c2)c1
Time [1]: 4.59 h

Ratio EC50 (Homo sapiens): 5300
SMILES: C[C@H](Cc1cccc(CC(=O)NCc2ccc(Cl)c(Cl)c2)c1)NC[C@H](O)c1ccc(O)c(CO)c1
Time [1]: 9 h

EC50 [2]: 0.064 nM
Ratio EC50 (Homo sapiens): 1300
SMILES: C[C@H](Cc1cccc(CC(=O)NC23CC4CC(CC(C4)C2)C3)c1)NC[C@H](O)c1ccc(O)c(CO)c1
Time [1]: 6.35 h

SMILES: OCc1cc(C(O)CNCCCCCCOCCCCc2ccccc2)ccc1O (stereo not given) [SALMETEROL]
Time [1]: 6.97 h
Time (Canis familiaris [4]): 4 h
Time (Canis familiaris [5]): <7 h
Activity (Canis familiaris [25]): Toxic
ED50 (Canis familiaris [23]): 1 µg

EC50 [2]: 0.066 nM
Ratio EC50 (Homo sapiens): 1700
logD [3]: 2.4
SMILES: CC(C)(Cc1cccc(CC(=O)NCc2ccc(Cl)c(Cl)c2)c1)NC[C@H](O)c1ccc(O)c(NS(C)(=O)=O)c1
Time [1]: 8.34 h

EC50 [2]: 0.17 nM
Ratio EC50 (Homo sapiens): 7000
logD [3]: 1.6
pKa [24]: 9.22
SMILES: CC(C)(Cc1cccc(CC(=O)NCc2cc(Cl)ccc2O)c1)NC[C@H](O)c1ccc(O)c(NS(C)(=O)=O)c1
Time [1]: 6 h

EC50 [2]: 0.048 nM
Ratio EC50 (Homo sapiens): 3300
logD [3]: 1.6
SMILES: CCOc1ccccc1CNC(=O)Cc1cccc(C[C@@H](C)NC[C@H](O)c2ccc(O)c(NS(C)(=O)=O)c2)c1
Time [1]: 6.2 h

logD [3]: 0.6
SMILES: CC(C)(Cc1ccccc1)NCC(O)c1ccc(O)c(NS(C)(=O)=O)c1 (stereo not given) [ZINTEROL]
Time [1]: 3.4 h
